Results on three compounds are retold here after US20120184728A1, “Compound Amycolose Derivative, Method for Producing the Same, and Use of the Same” (priority 2009, published 2012).

SMILES strings stand for the structures. Entries after “also recorded” stand apart in the source; their conditions may differ.

For the assay, the system named is Human prostate stromal cells PrSC. The assay can be described thus: Cell growth suppressive activity (MTT, Test Example 1). The settings on record: 0.024 to 100 μg/mL, 3 days culture, MTT absorbance at 570 nm, result in words. The format is cell-based. The protocol: Human prostate stromal cells PrSC (product of Bio Whittaker) were added to DMEM (product of NISSUI PHARMACEUTICAL CO., LTD.) containing 10% by mass FBS (fetal bovine serum) (product of ICN Biomedicals) to prepare a cell suspension having a concentration of 5×10^4 cells/mL. The cell suspension was placed in a 96-well plate in an amount of 0.1 mL per well. Each of the amycolose derivatives (compounds 1, 2 and 3) was added to the wells at a final concentration of 0.024 μg/mL, 0.098 μg/mL, 0.391 μg/mL, 1.563 μg/mL, 6.25 μg/mL, 25 μg/mL or 100 μg/mL, followed by culturing in an incubator for 3 days at 37° C. and 5% CO2. Then, MTT (3-[4,5-dimethylthiazol-2-yl]-2,5-diphenyltetrazolium bromide) (product of Sigma Co.), which had been adjusted with a phosphate buffer to have a concentration of 5 mg/mL, was added to each well in an amount of 10 μL, followed by culturing in an incubator for 4 hours at 37° C. and 5% CO2. Subsequently, 10 μL of 20% by mass SDS (sodium dodecylsulphate) prepared with 10 mM hydrochloric acid was added to each well, and the plate was left to stand still overnight at 37° C. to dissolve formazan formed from MTT. Thereafter, the plate was measured for absorbance at 570 nm with an absorptiometer (hereinafter may be referred to as “amycolose derivative-added sample's absorbance”). Regarding as 100% the absorbance measured when no amycolose derivative was added (hereinafter may be referred to as “control absorbance”), the cell growth rate in each of the amycolose derivatives (compounds 1, 2 and 3) at the above concentrations was calculated using the following equation (1).
Cell growth rate (%)=amycolose derivative-added sample's absorbance/control absorbance×100 Equation (1)
As for `CO[C@H]1C[C@@](O)([C@H](C)NC(=O)c2[nH]c(C)c(Cl)c2Cl)[C@H](O)[C@@H](C)O1` [compound 2], the “cell growth suppressive activity (cell growth rate, FIG. 5)” value (from here on “cell growth suppressive activity”) is recorded as “exhibit cell growth suppressive activity”.

For the compound `CO[C@@H]1C[C@@](O)([C@H](C)NC(=O)c2[nH]c(C)c(Cl)c2Cl)[C@H](O)[C@@H](C)O1` [compound 3], the “cell growth suppressive activity” value was “exhibit cell growth suppressive activity”.

Turning to `Cc1[nH]c(C(=O)N[C@@H](C)[C@]2(O)CC(O)O[C@H](C)[C@H]2O)c(Cl)c1Cl` (stereo partly drawn) [compound 1], the “cell growth suppressive activity” value is on record as “exhibit cell growth suppressive activity; also recorded: remarkable cell growth suppressive activity”.
